Experimental data as given in patent US20190169134A1, “NOVEL CLASS OF QUINOLONE HETEROCYCLIC AROMATIC MOLECULES FOR CANCER TREATMENT” (RenoTarget Therapeutics, Inc., priority 2016, published 2019).
“And” between values parts separate entries of the source, which are not always exact repeats. Equal values may be shown once.

Legend:
EGFR (G719S) = biological target: T1, EGFR (G719S) (Homo sapiens, UniProt P00533, G719S); experiment: KinaseSeeker competition binding assay
T1 construct: made in house; host or cells: cell-free system (rabbit reticulocyte lysate)
Protocol: (§1) Compound Reno647 was profiled against the following panel of kinases at 2 μM using the KinaseSeeker™ assay: ABL1, AKT1, AKT2, AKT3, ALK, AURKA, AXL, BRAF, BTK, CDK2, CDK5, CDK7, CDK8, CSF1R, DDR1, EGFR del L747-P753 InsS, EGFR (L861Q), EGFR (G719S), EGFR, EGFR (L858R), EPHA2, EPHB2, FGFR3, FLT1/VEGFR1, FLT2/FGFR1, FLT3, FLT4/VEGFR3, GSK-3a, HER2, IGF1R, INSR, KIT, LIMK1, MET, MLK2/MAP3K10, RPS6KA5/MSK1, MUSK, p38a/MAPK12, PDGFRA, PDGFRB, PDK1, RET, RIPK2, RPS6KA1/RSK1, SRC, TEC, TESK1, TRKB, VEGFR2, and YES 1.
(§2) KinaseSeeker is a homogeneous competition binding assay where the displacement of an active site dependent probe by an inhibitor is measured by a change in luminescence signal (see FIG. 7). Luminescence readout translates into a highly sensitive and robust assay with low background and minimal interference from test compounds.
(§3) (Jester, Cox et al. 2010; Jester, Gaj et al. 2012): 10 mM stock of compound Reno647 was diluted in DMSO to a concentration of 50 μM. Prior to initiating a profiling campaign, the compound was evaluated for false positive against split-luciferase. The compound was then screened in duplicate against each of the kinases. For kinase assays, each Cfluc-Kinase was translated along with Fos-Nfluc using a cell-free system (rabbit reticulocyte lysate) at 30° C. for 90 min. A 24 μL aliquot of this lysate containing either 1 μL of DMSO (for no-inhibitor control) or compound solution in DMSO (2 LM final concentration) was incubated for 30 minutes at room temperature followed by 1 hour in the presence of a kinase specific probe. A 80 μL of luciferin assay reagent was added to each solution and luminescence was immediately measured on a luminometer.
(§4) The % Inhibition and % Activity Remaining were calculated using the following equations:
(§5) % inhibition=(ALUcontrol−ALUsample)×100
(§6) % activity=100−% inhibition.
(§7) The same assay design was used as described in example section 3.1.
(§8) 10 mM stock solutions of compound Reno647 was serially diluted in DMSO to make assay stocks. Prior to initiating IC50 determination, the test compound was evaluated for false positive against split-luciferase.
(§9) Reno647 was screened against 6 kinases (EGFR, EGFR del L747 P753 InsS, EGFR G719S, EGFR L858R, EGFR L861Q, RIPK2) at a minimum of 8 different concentrations in duplicate. For kinase assays, a 24 μL aliquot of lysate containing Cfluc-kinase and Fos-Nfluc was incubated for 30 minutes at room temperature with either 1 μL of DMSO (for no-inhibitor control) or compound solution in DMSO, followed by 1 hour incubation in the presence of a kinase specific probe. A 80 μL of luciferin assay reagent was added to each solution and luminescence was immediately measured on a luminometer.
(§10) % inhibition=(ALUcontrol−ALUsample)/ALcontrol×100
(§11) The % Activity was plotted against compound concentration and the IC50 was determined for each compound using an 8-point curve.

EGFR = biological target: T2, EGFR (Homo sapiens, UniProt P00533); experiment: KinaseSeeker competition binding assay
T2 construct: made in house; host or cells: cell-free system (rabbit reticulocyte lysate)
Protocol: as §1, §2, §3, §4, §5, §6, §7, §8, §9, §10, §11

EGFR (L858R) = biological target: T3, EGFR (L858R) (Homo sapiens, UniProt P00533, L858R); experiment: KinaseSeeker competition binding assay
T3 construct: made in house; host or cells: cell-free system (rabbit reticulocyte lysate)
Protocol: as §1, §2, §3, §4, §5, §6, §7, §8, §9, §10, §11

EGFR del L747-P753 Ins S = biological target: T4, EGFR del L747-P753 Ins S (Homo sapiens, UniProt P00533, DEL747-752/P753S); experiment: KinaseSeeker competition binding assay
T4 construct: made in house; host or cells: cell-free system (rabbit reticulocyte lysate)
Protocol: as §1, §2, §3, §4, §5, §6, §7, §8, §9, §10, §11

EGFR(L861Q) = biological target: T5, EGFR(L861Q) (Homo sapiens, UniProt P00533, L861Q); experiment: KinaseSeeker competition binding assay
T5 construct: made in house; host or cells: cell-free system (rabbit reticulocyte lysate)
Protocol: as §1, §2, §3, §4, §5, §6, §7, §8, §9, §10, §11

HCC827-P = experiment: qRT-PCR expression of Caspase 3, Caspase 9 and p21; assay type: cell-based, human; conditions: 24 h
Protocol: FIG. 10 depicts the effect of Reno647 on expressions of Caspase 3, Caspase 9 and p21 in HCC827-P and on Box, Bcl2, p53 and p21 in HCC827-OR16 cells. […] Total cellular RNA was extracted and cDNA was prepared followed by qRT-PCR using specific probes as described in the section of Materials and Methods. Tgene ΔCt value was normalized for GAPDH by calculating ΔCt=Ctgene−CtGAPDH per sample.
HCC827 P or other indicated cells at exponential growth phase were treated with indicated concentrations of compounds for 24 hours. Total cellular RNA was prepared from lysed tumor cells using an RNA Purification kit (ThermoFisher Scientific). The first-strand of cDNA was synthesized using a High Capacity cDNA reverse transcription kit (ThermoFisher Scientific) in PTC-100 Peltier Thermal Cycler PCR. The resultant cDNA (0.5-1 μL) was used in a 10 μl reaction by using Taqman Universal PCR Master Mix (ThermoFisher Scientific). The pre-designed primers and probe were purchased from Life Technologies and used for qPCR. Human GAPDH was used as an internal control. qPCR was performed using Applied Biosystems StepOne and StepOnePlus Real-Time PCR Systems according manufacturer's instructions. An initial PCR denaturation step was performed at 95° C. for 20 seconds. The general cycling stage for qPCR were as follows: denaturation at 95° C. for 1 second, annealing and extension at 60° C. for 20 seconds, repeat for 40 cycles. Tgene ΔCt value was normalized for GAPDH by calculating ΔCt=Ctgene−CtGAPDH per sample.

T4 sequence (P00533 with tags, fused parts or gaps DEL747-752/P753S): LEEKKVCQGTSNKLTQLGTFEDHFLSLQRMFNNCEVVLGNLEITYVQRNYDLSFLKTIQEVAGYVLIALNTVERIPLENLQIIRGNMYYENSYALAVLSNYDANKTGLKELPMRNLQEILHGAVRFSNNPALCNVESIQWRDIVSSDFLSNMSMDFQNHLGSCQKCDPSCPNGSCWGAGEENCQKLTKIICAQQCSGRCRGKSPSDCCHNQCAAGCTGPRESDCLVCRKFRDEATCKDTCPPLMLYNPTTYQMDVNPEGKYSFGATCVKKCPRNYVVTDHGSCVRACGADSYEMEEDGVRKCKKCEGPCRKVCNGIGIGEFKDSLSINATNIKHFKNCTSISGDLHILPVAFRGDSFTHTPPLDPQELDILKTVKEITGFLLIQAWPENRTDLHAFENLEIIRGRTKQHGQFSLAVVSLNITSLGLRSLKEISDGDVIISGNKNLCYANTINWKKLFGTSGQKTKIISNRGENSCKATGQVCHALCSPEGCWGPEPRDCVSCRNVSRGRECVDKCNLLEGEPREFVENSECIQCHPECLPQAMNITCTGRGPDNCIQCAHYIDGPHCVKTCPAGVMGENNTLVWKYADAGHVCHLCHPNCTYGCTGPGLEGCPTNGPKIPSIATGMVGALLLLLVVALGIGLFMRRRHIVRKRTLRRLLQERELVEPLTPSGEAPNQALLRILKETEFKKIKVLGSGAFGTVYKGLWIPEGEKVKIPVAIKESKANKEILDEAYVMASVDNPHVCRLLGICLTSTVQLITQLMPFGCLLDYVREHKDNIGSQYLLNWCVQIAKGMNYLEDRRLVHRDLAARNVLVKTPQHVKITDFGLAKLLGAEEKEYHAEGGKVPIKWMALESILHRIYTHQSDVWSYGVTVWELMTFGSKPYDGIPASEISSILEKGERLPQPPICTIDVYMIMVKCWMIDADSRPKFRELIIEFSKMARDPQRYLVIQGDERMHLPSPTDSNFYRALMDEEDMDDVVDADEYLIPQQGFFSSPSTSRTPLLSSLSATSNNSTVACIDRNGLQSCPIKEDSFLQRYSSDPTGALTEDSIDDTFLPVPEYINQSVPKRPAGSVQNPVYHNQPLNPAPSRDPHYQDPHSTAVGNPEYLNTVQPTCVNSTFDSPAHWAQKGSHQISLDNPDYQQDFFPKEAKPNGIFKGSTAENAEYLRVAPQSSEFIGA
T1 sequence (P00533 25-1210 G719S): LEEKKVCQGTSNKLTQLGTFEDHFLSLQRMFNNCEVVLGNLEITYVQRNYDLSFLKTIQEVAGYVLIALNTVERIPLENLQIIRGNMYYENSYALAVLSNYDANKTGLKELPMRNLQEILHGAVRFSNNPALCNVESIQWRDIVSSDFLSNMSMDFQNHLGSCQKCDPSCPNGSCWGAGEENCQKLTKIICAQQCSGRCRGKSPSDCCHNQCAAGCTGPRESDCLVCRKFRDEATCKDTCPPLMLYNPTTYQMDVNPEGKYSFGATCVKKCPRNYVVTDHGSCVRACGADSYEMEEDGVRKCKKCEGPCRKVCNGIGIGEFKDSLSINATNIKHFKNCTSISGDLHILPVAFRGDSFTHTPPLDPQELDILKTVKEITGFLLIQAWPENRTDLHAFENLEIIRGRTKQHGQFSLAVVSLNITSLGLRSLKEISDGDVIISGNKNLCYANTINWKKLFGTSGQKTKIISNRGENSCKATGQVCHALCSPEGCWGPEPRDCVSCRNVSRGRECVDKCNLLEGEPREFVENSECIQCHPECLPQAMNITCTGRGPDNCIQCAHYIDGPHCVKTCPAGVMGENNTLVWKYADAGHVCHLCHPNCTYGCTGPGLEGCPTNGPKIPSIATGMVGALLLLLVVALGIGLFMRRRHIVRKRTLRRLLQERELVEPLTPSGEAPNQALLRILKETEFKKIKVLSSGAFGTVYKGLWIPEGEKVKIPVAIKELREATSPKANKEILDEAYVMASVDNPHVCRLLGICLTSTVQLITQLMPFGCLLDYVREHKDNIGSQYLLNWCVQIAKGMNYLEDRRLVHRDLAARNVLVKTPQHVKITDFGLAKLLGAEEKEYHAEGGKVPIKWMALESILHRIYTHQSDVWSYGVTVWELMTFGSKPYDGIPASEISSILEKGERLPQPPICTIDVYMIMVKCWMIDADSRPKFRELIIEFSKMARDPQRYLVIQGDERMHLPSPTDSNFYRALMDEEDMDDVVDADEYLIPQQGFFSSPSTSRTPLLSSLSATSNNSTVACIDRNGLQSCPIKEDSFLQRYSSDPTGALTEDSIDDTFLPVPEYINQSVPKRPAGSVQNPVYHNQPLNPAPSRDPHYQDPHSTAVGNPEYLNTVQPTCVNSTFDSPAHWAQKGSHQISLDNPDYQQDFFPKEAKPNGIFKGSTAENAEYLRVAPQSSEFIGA
T5 sequence (P00533 25-1210 L861Q): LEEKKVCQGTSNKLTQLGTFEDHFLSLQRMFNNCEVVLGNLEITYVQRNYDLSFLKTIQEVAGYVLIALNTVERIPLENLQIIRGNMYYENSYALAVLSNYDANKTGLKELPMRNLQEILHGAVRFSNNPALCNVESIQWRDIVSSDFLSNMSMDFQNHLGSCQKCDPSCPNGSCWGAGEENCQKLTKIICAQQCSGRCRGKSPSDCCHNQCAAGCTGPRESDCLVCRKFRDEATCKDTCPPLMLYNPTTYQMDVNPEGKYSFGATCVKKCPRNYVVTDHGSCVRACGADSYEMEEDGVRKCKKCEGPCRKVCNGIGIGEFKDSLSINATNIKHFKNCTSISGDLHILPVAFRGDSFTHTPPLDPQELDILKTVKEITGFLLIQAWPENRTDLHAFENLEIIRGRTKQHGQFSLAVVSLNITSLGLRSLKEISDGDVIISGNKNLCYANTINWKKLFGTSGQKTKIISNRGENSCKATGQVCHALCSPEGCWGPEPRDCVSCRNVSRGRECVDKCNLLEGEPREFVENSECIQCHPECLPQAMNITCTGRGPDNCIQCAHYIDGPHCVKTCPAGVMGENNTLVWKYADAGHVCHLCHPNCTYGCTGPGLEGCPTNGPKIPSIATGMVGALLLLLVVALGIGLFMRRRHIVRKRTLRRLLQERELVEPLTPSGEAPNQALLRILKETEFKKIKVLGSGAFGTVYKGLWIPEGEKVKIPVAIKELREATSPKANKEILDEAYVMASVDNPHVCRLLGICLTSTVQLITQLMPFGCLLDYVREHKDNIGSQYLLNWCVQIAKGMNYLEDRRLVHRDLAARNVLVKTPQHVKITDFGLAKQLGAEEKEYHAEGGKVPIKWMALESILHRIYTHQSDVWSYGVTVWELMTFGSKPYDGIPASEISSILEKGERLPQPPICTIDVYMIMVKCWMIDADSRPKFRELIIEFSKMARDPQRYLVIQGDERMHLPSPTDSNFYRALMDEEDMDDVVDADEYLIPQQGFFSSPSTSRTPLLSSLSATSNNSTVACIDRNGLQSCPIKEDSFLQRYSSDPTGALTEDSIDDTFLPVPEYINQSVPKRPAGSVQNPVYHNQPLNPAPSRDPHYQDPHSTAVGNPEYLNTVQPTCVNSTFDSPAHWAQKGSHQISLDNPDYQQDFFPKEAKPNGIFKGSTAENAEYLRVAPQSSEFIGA
T3 sequence (P00533 25-1210 L858R): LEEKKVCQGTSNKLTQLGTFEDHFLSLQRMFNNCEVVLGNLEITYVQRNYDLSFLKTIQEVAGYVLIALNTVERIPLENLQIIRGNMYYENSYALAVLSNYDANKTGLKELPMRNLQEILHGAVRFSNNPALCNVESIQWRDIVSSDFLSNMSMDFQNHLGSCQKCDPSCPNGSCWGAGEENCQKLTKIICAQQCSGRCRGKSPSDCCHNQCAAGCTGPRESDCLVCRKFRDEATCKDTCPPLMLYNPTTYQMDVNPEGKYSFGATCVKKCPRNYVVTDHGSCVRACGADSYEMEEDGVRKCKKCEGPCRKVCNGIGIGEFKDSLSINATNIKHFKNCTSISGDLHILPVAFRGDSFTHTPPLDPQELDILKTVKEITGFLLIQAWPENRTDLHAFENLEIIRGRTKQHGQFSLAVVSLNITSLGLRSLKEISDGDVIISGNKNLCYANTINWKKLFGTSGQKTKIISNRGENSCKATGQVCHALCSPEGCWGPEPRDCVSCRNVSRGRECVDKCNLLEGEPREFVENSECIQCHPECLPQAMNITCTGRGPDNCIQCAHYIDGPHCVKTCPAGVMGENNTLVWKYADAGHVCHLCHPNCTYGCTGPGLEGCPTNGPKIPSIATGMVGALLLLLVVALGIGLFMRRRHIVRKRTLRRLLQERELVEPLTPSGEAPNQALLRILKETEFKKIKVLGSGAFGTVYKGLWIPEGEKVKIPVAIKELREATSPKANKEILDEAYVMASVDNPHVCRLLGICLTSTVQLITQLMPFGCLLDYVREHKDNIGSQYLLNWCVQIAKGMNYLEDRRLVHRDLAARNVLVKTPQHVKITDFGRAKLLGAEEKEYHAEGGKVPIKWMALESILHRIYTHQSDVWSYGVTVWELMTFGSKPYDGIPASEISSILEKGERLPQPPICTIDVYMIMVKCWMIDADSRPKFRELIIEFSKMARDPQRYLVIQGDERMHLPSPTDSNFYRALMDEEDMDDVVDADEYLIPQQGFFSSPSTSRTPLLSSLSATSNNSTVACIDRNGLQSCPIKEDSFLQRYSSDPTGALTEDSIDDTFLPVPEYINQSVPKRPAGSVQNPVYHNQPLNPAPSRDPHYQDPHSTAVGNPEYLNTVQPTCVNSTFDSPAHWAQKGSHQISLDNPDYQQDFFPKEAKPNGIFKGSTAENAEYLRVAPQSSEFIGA

C#Cc1cccc(Nc2ncnc3cc(OCCOC)c(NC(=O)c4ccc(F)c([N+](=O)[O-])c4)cc23)c1 [Reno647, 4-Fluoro-N-[4-(3-ethynyl-phenylamino)-7-(2-methoxy-ethoxy)-quinazolin-6-yl]-3-nitro-benzamide]
remaining binding at 2 µM (EGFR (G719S); 2 μM, EGFR (G719S)): 30.2%
IC50 (EGFR (G719S); 8-point curve, duplicate): 971 nM
remaining binding at 2 µM (EGFR; 2 μM, wild-type EGFR): 66.7%
IC50 (EGFR; 8-point curve, duplicate, read-out: IC50 wild-type of EGFR): 25 µM
remaining binding at 2 µM (EGFR (L858R); 2 μM, EGFR (L858R)): 7.2%
IC50 (EGFR (L858R); 8-point curve, duplicate): 159 nM
remaining binding at 2 µM (EGFR del L747-P753 Ins S; 2 μM, EGFR del L747-P753 Ins S): 14.8%
IC50 (EGFR del L747-P753 Ins S; 8-point curve, duplicate, read-out: IC50 EGFR del L747-P753 InsS): 77.7 nM and 77 nM
remaining binding at 2 µM (EGFR(L861Q); 2 μM, EGFR(L861Q)): 20.7%
IC50 (EGFR(L861Q); 8-point curve, duplicate): 574 nM
p21 expression (HCC827-P; q-RT-PCR): significant induction
Caspase 3 expression (HCC827-P; qRT-PCR): moderate increase
Caspase 9 expression (HCC827-P; qRT-PCR): significant and concentration-dependent induction
